Source: patent US7358352B2, “Nucleic acids encoding human TNF-α convertase” (Schering Corporation, priority 1996, dated 2008)
Like-named read-outs stand apart in the source and are kept apart here. The star is where a group is joined. MeOSuc = COC(=O)CCC(=O)*; CH2Cl = ClC*

Columns and labels:
TNF-α convertases = assay: In vitro assays for TNF-α convertase activity (protease inhibitor profile); assay type: biochemical
Experimental: For the assay of convertase activity associated with or isolated from membrane preparations, a protein-based assay was carried out essentially as described by Mohler et al., Nature 370:218 (1995).
Briefly, a peptide-tagged recombinant human TNF-α protein substrate (Flag-TNF-α) was cloned and expressed in E. coli. The protein was purified by affinity chromatography using an M2 (anti-Flag)-Sepharose column (Kodak), and by ion exchange chromatography using a BIOCAD equipped with an HQ10 column.
To test for convertase activity, a membrane protein sample (12 μg) was mixed (in 12 μl) with 2 ng of ^125I-polypeptide substrate (approximately 50,000 cpm) in the presence of inhibitors of other proteolytic enzymes [e.g., 200 μM 4-(2-aminoethyl)-benzenesulfonyl fluoride hydrochloride (AEBSF), 2 μM pepstatin, 200 μM leupeptin, 1 mM methoxysuccinyl-Ala-Ala-Pro-Val-chloromethylketone (AAPV)], and with or without 2.5 mM EDTA. Following incubation at 37° C. overnight, samples were fractionated in a 16% sodium dodecylsulfate (SDS) gel and subjected to SDS polyacrylamide gel electrophoresis [SDS-PAGE; Laemmli, Nature 227:680 (1970)]. The gels were dried, and radioactivity was detected by autoradiography.
A polypeptide-based assay for TNF-α convertase activity was also carried out essentially using the method of Mohler et al., supra. Briefly, an amino-terminal dinitrophenylated peptide substrate, amidated at the carboxyl terminus (SEQ ID NO: 4) was synthesized and purified using standard procedures. Dinitrophenylated polypeptides corresponding to cleavage products expected for TNF-α convertase (a dinitrophenylated peptide having the sequence of residues 1-6 of SEQ ID NO: 4) and for other membrane proteases were also synthesized.
To test for convertase activity, a membrane protein sample was mixed in 50 μl with 1 μg peptide substrate in the presence of inhibitors (0.2 mM AEBSF, 2 μM pepstatin, 200 μM leupeptin, 1 mM AAPV). Following incubation at 37° C. for from 60 minutes to overnight, the protein was precipitated by cold 5% trichloroacetic acid (TCA), 20% acetonitrile, and the soluble peptide fraction was applied to a YMC 120 angstrom C-18 ODS-AQ column (4.6×100 mm; YMC, Inc.). The column was eluted isocratically at a flow rate of 1 ml/min using 40% acetonitrile plus 0.06% trifloroacetic acid. The elution of DNP-peptide was monitored at 360 nm using a Waters 625 LC system.

lethal dose of endotoxin = conditions: mice; cited from earlier work
TNF-α secretion [1] = conditions: in vitro; cited from earlier work
TNF-α secretion [2] = conditions: in vivo; cited from earlier work
[3] = general property, concentration not given

CC(C)C[C@H](NC(=O)[C@H]1O[C@@H]1C(=O)O)C(=O)NCCCCN=C(N)N (relative stereo) [E64]
inhibition of TNF-α convertases (TNF-α convertases; 100 μM): Not inhibited

α-2 macroglobulin: protein protease inhibitor
inhibition of TNF-α convertases (TNF-α convertases; [3]): Inhibited

O=C(O)CN(CCN(CC(=O)O)CC(=O)O)CC(=O)O [EDTA, ethylenediaminetetraacetic acid]
inhibition of TNF-α convertases (TNF-α convertases; [3]): Inhibited
band at the position of the 17 kDa human TNF-α cleavage product (SDS-PAGE autoradiography) (TNF-α convertases; membrane protein sample, 125I Flag-TNF-α substrate, with or without 2.5 mM EDTA, 37° C. overnight): intensified bands from the samples incubated without EDTA

CC(C)CC(CC(=O)NO)C(=O)N[C@@H](Cc1ccc2ccccc2c1)C(=O)N[C@@H](C)C(=O)NCCN (stereo partly drawn) [N-{D,L-[2-(hydroxyaminocarbonyl)methyl]-4-methylpentanoyl}L-3-(2′naphthyl)-alanyl-L alanine, 2-aminoethyl amide]
protection against a lethal dose of endotoxin (lethal dose of endotoxin): protect mice against a lethal dose of endotoxin

O[C@H](CS)[C@H](O)CS (racemic) [DTT, dithiothreitol]
inhibition of TNF-α convertases (TNF-α convertases; [3]): Inhibited

C[C@H](CS)C(=O)N1CCC[C@H]1C(=O)O [captopril]
inhibition of TNF-α convertases (TNF-α convertases; 100 μM): Not inhibited

TIMP-1: tissue inhibitor of metalloproteases-1
inhibition of TNF-α convertases (TNF-α convertases; 1 μg/ml): Not inhibited

CNC(=O)[C@H](Cc1ccccc1)NC(=O)[C@H](CC(C)C)[C@H](CSc1ccccc1)C(=O)NO [GI 129471]
block of TNF-α secretion (TNF-α secretion [1]): block TNF-α secretion
block of TNF-α secretion (TNF-α secretion [2]): block TNF-α secretion

O=C(O)CNC(=O)C(CS)Cc1ccccc1 (centres unmarked) [thiorphan]
inhibition of TNF-α convertases (TNF-α convertases; 100 μM): Not inhibited

O=c1oc(Cl)c(Cl)c2ccccc12 [DCI, dichloroisocoumarin]
inhibition of TNF-α convertases (TNF-α convertases; 100 μM): Not inhibited

CC(C)C[C@H](NP(=O)(O)O[C@@H]1O[C@@H](C)[C@H](O)[C@@H](O)[C@H]1O)C(=O)N[C@@H](Cc1c[nH]c2ccccc12)C(=O)O [phosphoramidon]
inhibition of TNF-α convertases (TNF-α convertases; 300 μM): Not inhibited

O=C(O)CI [IAA, iodoacetic acid]
inhibition of TNF-α convertases (TNF-α convertases; 1 mM): Not inhibited

c1cnc2c(c1)ccc1cccnc12 [1,10-phenanthroline]
inhibition of TNF-α convertases (TNF-α convertases; [3]): Inhibited

methoxysuccinyl-Ala-Ala-Pro-Val-chloromethylketone (MeOSuc-AAPV-CH2Cl)
inhibition of TNF-α convertases (TNF-α convertases; 1 mM): Not inhibited

B1: SBTI: soybean trypsin inhibitor (protein, UniProt P01070 25-205, looked up)
Trypsin inhibitor A: DFVLDNEGNPLENGGTYYILSDITAFGGIRAAPTGNERCPLTVVQSRNELDKGIGTIISSPYRIRFIAEGHPLSLKFDSFAVIMLCVGIPTEWSVVEDLPEGPAVKIGENKDAMDGWFRLERVSDDEFNNYKLVFCPQQAEDDKCGDIGISIDHDDGTRRLVVSKNKPLVVQFQKLDKESL
inhibition of TNF-α convertases (TNF-α convertases; 1 μg/ml): Not inhibited
